Where two headings read alike, the source gives them in different places.
Key:
HepG2 cells [1] = settings: cited from earlier work
hLiMTs [2] = assay: Combined HCI (HCS) and cellular ATP 3D assay in hLiMTs
[3] = tested on: THLE-Null and THLE-3A4 cells; settings: In vitro Assay; ref Gustafsson 2014; cited from earlier work
[4] = tested on: isolated mouse liver mitochondria; settings: In vitro Assay; ref Porceddu 2012; cited from earlier work
[5] = tested on: THLE or HepG2 cells, isolated mitochondria, BSEP; settings: cited from earlier work
rBsep = settings: In vitro Assay; ref Dawson 2012; cited from earlier work
[6] = read-out: Human plasma Cmax; total plasma Cmax.tot, median of 9 literature references; cited from earlier work
[7] = cited from earlier work
[8] = plasma free fraction; cited from earlier work
HepaRG spheroids = assay: Combined HCI (HCS) and cellular ATP 3D assay in HepaRG spheroids
[9] = Plasma free fraction (fu) and unbound Cmax (Cmax,u); assay type: in vitro ADME, human; settings: unbound plasma Cmax
Description: The prediction of DILI severity was evaluated further using the 3D combined HCI assays using plasma-free fraction. The majority of fu values were obtained from literature, when unavailable in-house prediction was utilised. Unbound plasma Cmax concentrations (Cmax,u) were derived by multiplying total plasma Cmax with the corresponding free fraction (fu) for each compound.

Upcyte human hepatocytes = settings: In vitro Assay; ref Tolosa 2019; cited from earlier work
human hepatocytes = settings: cited from earlier work
[10] = cited from earlier work; remark: listed apart in the source
HepG2 cells [11] = settings: cited from earlier work; remark: listed apart in the source
PHH = settings: cited from earlier work
[12] = tested on: HepG2 cells, primary human hepatocytes; settings: In vitro Assay; ref Garside 2014; cited from earlier work
hLiMTs [13] = settings: cited from earlier work
[14] = In vitro Assay, ref Persson 2013
[15] = Microtissue model structural based (HCI), combined HCS and ATP, MEC < 25 × Cmax.tot cut-off
[16] = Modeled in vitro assays (cytotoxicity, mitochondrial dysfunction, BSEP), ref Aleo et al. 2019
[17] = In vitro Assay, ref Proctor 2017

Structure (SMILES): [H]/N=C(/N)N[C@H]1[C@H](O)[C@@H](O)[C@H](O[C@@H]2O[C@@H](C)[C@](O)(C=O)[C@H]2O[C@@H]2O[C@@H](CO)[C@H](O)[C@@H](O)[C@@H]2NC)[C@@H](N/C(N)=N\[H])[C@@H]1O [streptomycin, reference compound]
- Cluser analysis (HepG2 cells [1]; [14]): -VE
- Structural based (HCI) (HepG2 cells [1]; [14]): -VE
- DILI in vitro assay prediction, Persson (2013) (HepG2 cells [1]; Structural based (HCI), HepG2, ref Persson et al. 2013): -VE
- AC50 (hLiMTs [2]; Homo sapiens, read-out: ATP endpoint AC50): 1.96 mM
- minimal effective concentration (hLiMTs [2]; Homo sapiens, read-out: ATP endpoint MEC): 1700 µM
- DILI prediction hLiMTs (HCS-MEC) (hLiMTs [2]; [15]): -VE
- hLiMTs <25x Avg Cmax ATP (hLiMTs [2]; hLiMTs, ATP endpoint, cut-off <25x Avg Cmax): -ve
- hLiMTs <100x Avg Cmaxu ATP (hLiMTs [2]; hLiMTs, ATP endpoint, cut-off <100x Avg Cmaxu): +ve (<100x Avg Cmaxu)
- hLiMTs <25x Avg Cmax HCS (hLiMTs [2]; hLiMTs, HCS endpoints, cut-off <25x Avg Cmax): -ve
- hLiMTs <100x Avg Cmaxu HCS (hLiMTs [2]; hLiMTs, HCS endpoints, cut-off <100x Avg Cmaxu): -ve
- hLiMTs <25x Avg Cmax All (hLiMTs [2]; hLiMTs, all endpoints (ATP and HCS), cut-off <25x Avg Cmax): -ve
- hLiMTs Cmax max All (hLiMTs [2]; hLiMTs, all endpoints, Cmax max used): -ve
- hLiMTs Cmax min All (hLiMTs [2]; hLiMTs, all endpoints, Cmax min used): -ve
- hLiMTs <10 uM All (hLiMTs [2]; hLiMTs, all endpoints, cut-off <10 uM): -ve
- hLiMTs <100x Avg Cmaxu All (hLiMTs [2]; hLiMTs, all endpoints, cut-off <100x Avg Cmaxu): +ve (<100x Avg Cmaxu)
- THLE-Null [3]: -VE
- THLE-Null/3A4 [3]: -VE
- in vitro data EC2<=1x Cmax [4]: +VE
- in vitro data EC20<=2uM [4]: -VE
- Partition Hybrid HRM Score ([5]; In vitro Assay, ref Aleo 2019): -VE
- Ro2 Hybrid HRM Score ([5]; In vitro Assay, ref Aleo 2019): -VE
- Partition Hybrid HRM Score ≥4, Aleo (2019) [5, 16]: -VE
- Partition Hybrid HRM Score ≥8, Aleo (2019) [5, 16]: -VE
- Rule of Two hybrid HRM Score ≥3, Aleo (2019) [5, 16]: -VE
- Rule of Two hybrid HRM Score ≥8, Aleo (2019) [5, 16]: -VE
- Inhibition of rBsep cutoff<1& cmax u>.2 (rBsep): -VE
- Inhibition of rBsep cutoff<3 (rBsep): -VE
- Cmax [6]: 64.5 µM
- Assigned DILI category ([7]; Chen et al. 2016 or literature alignment, ref Chen et al. 2016): 1
- In vivo DILI ([7]; ref Aleo 2019): -VE
- In vivo DILI ([7]; ref Dawson 2012): -VE
- In vivo DILI ([7]; ref Garside 2014): -VE
- In vivo DILI ([7]; ref Gustafsson 2014): -VE
- In vivo DILI ([7]; ref O'Brien 2006): -VE
- In vivo DILI ([7]; ref Persson 2013): -VE
- In vivo DILI ([7]; ref Porceddu 2012): +VE
- In vivo DILI ([7]; ref Proctor 2017): -VE
- In vivo DILI ([7]; ref Tolosa 2019): -VE
- In vivo DILI ([7]; ref Xu 2008): -VE
- fu [8]: 0.650
- HepaRG <25x Avg Cmax ATP (HepaRG spheroids; HepaRG, ATP endpoint, cut-off <25x Avg Cmax): -ve
- HepaRG <100x Avg Cmaxu ATP (HepaRG spheroids; HepaRG, ATP endpoint, cut-off <100x Avg Cmaxu): +ve (<100x Avg Cmaxu)
- HepaRG <25x Avg Cmax HCS (HepaRG spheroids; HepaRG, HCS endpoints, cut-off <25x Avg Cmax): -ve
- HepaRG <100x Avg Cmaxu HCS (HepaRG spheroids; HepaRG, HCS endpoints, cut-off <100x Avg Cmaxu): +ve (<100x Avg Cmaxu)
- HepaRG <25x Avg Cmax All (HepaRG spheroids; HepaRG, all endpoints (ATP and HCS), cut-off <25x Avg Cmax): -ve
- HepaRG Cmax max All (HepaRG spheroids; HepaRG, all endpoints, Cmax max used): -ve
- HepaRG Cmax min All (HepaRG spheroids; HepaRG, all endpoints, Cmax min used): -ve
- HepaRG <10 uM All (HepaRG spheroids; HepaRG, all endpoints, cut-off <10 uM): -ve
- HepaRG <100x Avg Cmaxu All (HepaRG spheroids; HepaRG, all endpoints, cut-off <100x Avg Cmaxu): +ve (<100x Avg Cmaxu)
- AC50 (HepaRG spheroids; Homo sapiens, HepaRG, read-out: ATP endpoint AC50): 3.65 mM
- minimal effective concentration (HepaRG spheroids; Homo sapiens, HepaRG, read-out: ATP endpoint MEC): 2830 µM
- minimal effective concentration (HepaRG spheroids; Homo sapiens, HepaRG, read-out: HCS endpoint MEC): 3140 µM
- DILI prediction HepaRG spheroids (HCS-MEC) (HepaRG spheroids; [15]): -VE
- Human plasma Cmax,u [9]: 41.912 µM
- Upcytes multi donor assay 14day data (Upcyte human hepatocytes): -VE
- Structural based (HCI) (human hepatocytes; In vitro Assay, ref Xu 2008): -VE
- DILI in vitro assay prediction, Xu (2008) (human hepatocytes; Structural based (HCI), human hepatocytes, ref Xu et al. 2008): -VE
- DILI severity category (Chen et al. [2016]) ([10]; LTKB DILIrank category, ref Chen et al. 2016): No
- DILI severity category (Chen 2016) ([10]; human DILI classification, LTKB DILIrank, ref Chen et al. 2016): No
- DILI severity category ([10]; human DILI severity, ref Chen et al.): No
- DILI +VE (5-8), DILI -VE (-4) ([10]; ref Chen 2016): -VE
- DILI severity category ([10]; ref Chen 2016): vNo-DILI-Concern
- Structural based (HCI) (HepG2 cells [11]; In vitro Assay, ref O'Brien 2006): +VE
- DILI in vitro assay prediction, O'Brien (2006) (HepG2 cells [11]; Structural based (HCI), HepG2, ref O'Brien et al. 2006): +VE (lowest HCI endpoint IC50 (or in the absence of dose–response < 100 µM) < 30 × total human plasma exposure levels (Cmax.tot))
- PHH/100xCmax, Proctor (2017) (PHH; 2D PHH, ATP, IC50 < 100 × Cmax.tot, ref Proctor et al. 2017): -VE
- PHH/100uM, Proctor (2017) (PHH; 2D PHH, ATP, IC50 threshold 100 µM, ref Proctor et al. 2017): -VE
- PHH ATP <100uM (PHH; [17]): -VE
- Cluster 1-6 +VE Assay [12]: -VE
- hLiMTs ATP <100uM (hLiMTs [13]; [17]): -VE
- hLiMTs/100xCmax, Proctor (2017) (hLiMTs [13]; hLiMTs, ATP, IC50 < 100 × Cmax.tot, ref Proctor et al. 2017): -VE
- hLiMTs/100uM, Proctor (2017) (hLiMTs [13]; hLiMTs, ATP, IC50 threshold 100 µM, ref Proctor et al. 2017): -VE
